This note sets out measurements from patent publication US9404081B2, “Pyruvate kinase activators for use in therapy” (AGIOS PHARMACEUTICALS, INC., priority 2011, dated 2016).

SMILES strings stand for the structures.

Common to all, as to type: biochemical
One assay addresses PKR R510Q (Homo sapiens, UniProt P30613, R510Q). Kind of assay: PKR R510Q Single Point Percent Activation Assay. Particulars: read-out: Act. % 510Q. An outline of the steps:
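Test compound was used at a single concentration of 1 μM and preincubated 60 min at room temperature with PKR R510Q (40 ng/well). The buffer was 50 mM Tris pH 7.5, 100 mM KCl, 5 mM MgCl2, 1 mM DTT and 0.03% BSA. The reaction was started with 0.2 mM ADP and read as OD340 in an LDH-coupled system (0.11 mM PEP, 180 μM NADH).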

Another assay has as its target PKR R532W (Homo sapiens, UniProt P30613, R532W). Kind of assay: PKR R532W Single Point Percent Activation Assay. Particulars: read-out: Act, % 532W. An outline of the steps: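 PKR R532W (100 ng/well) preincubated 60 min at RT with compound at 1 μM in Tris pH 7.5, KCl, MgCl2, DTT, BSA. Reaction started with ADP (0.36 mM), with PEP 0.1 mM, NADH 180 μM and LDH coupling; read at OD340, room temperature.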

In a further assay the target is PKR T384W (Homo sapiens, UniProt P30613, T384W). Kind of assay: PKR T384W Single Point Percent Activation Assay. Particulars: read-out: Act. % 384W. In short, it runs like this:
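Soluble PKR T384W (300 ng/well) preincubated 60 min at RT with 1 μM compound in 50 mM Tris pH 7.5, 100 mM KCl, 5 mM MgCl2, 1 mM DTT, 0.03% BSA. Started with ADP (0.08 mM); PEP 0.23 mM, LDH-coupled NADH (180 μM) consumption read at OD340, room temperature.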

A further assay concerns the target PKR wt (Homo sapiens, UniProt P30613). Kind of assay: PKR WT Single Point Percent Activation Assay. An outline of the steps: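 Single concentration of 1 μM compound preincubated 60 min at RT with PKR wt (100 ng/well) in Tris pH 7.5, KCl, MgCl2, DTT, BSA. Reaction started with ADP (0.48 mM final) with PEP 0.15 mM, coupled LDH/NADH (180 μM), read at OD340, room temperature; given as percent activation.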

Chain of PKR R510Q (P30613 whole entry R510Q): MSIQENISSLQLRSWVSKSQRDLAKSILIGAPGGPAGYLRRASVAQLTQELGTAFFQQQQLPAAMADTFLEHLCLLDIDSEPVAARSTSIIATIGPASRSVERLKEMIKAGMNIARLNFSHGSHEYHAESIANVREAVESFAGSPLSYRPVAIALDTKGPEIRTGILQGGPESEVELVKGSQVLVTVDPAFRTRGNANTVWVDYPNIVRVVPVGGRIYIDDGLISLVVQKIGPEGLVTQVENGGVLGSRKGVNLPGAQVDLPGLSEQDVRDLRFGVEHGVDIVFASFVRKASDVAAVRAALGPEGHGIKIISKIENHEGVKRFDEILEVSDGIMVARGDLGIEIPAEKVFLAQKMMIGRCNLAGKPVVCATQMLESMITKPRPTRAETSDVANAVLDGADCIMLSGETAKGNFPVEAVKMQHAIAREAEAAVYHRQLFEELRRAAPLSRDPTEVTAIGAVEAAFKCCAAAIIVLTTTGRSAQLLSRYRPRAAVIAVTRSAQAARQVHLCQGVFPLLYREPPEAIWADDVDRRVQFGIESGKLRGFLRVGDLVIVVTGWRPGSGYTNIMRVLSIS
Chain of PKR T384W (P30613 whole entry T384W): as the sequence (P30613 whole entry R510Q) above, with T384W, Q510R counted along it
Chain of PKR wt (P30613 whole entry): as the sequence (P30613 whole entry R510Q) above, with Q510R counted along it
Chain of PKR R532W (P30613 whole entry R532W): as the sequence (P30613 whole entry R510Q) above, with Q510R, R532W counted along it

With `CC(C)COC(=O)N1[C@H](C)CN(C(=O)c2ccc(NS(=O)(=O)c3cccc4cccnc34)cc2)C[C@@H]1C`, the activation at 1 µM lay within 101 to 500% at PKR R510Q, 1 to 100% on PKR R532W, 101 to 500% on PKR T384W and 101 to 500% at PKR wt.
`CC(c1c(F)ccc(F)c1F)N1CCN(C(=O)c2ccc(NS(=O)(=O)c3cccc4cccnc34)cc2)[C@H](C)C1` (stereo partly shown): the activation at 1 µM was 1 to 100% at PKR R510Q, 101 to 500% on PKR R532W, 101 to 500% on PKR T384W and 101 to 500% on PKR wt.
`C[C@H]1CN(Cc2cc(F)cc(F)c2)CCN1C(=O)c1ccc(NS(=O)(=O)c2cccc3cccnc23)cc1Cl`: the activation at 1 µM was 101 to 500% on PKR R510Q, 101 to 500% on PKR R532W, 1 to 100% on PKR T384W and 1 to 100% at PKR wt.
Consider `CC[C@H]1CN(C(C)c2cc(F)cc(F)c2)CCN1C(=O)c1ccc(NS(=O)(=O)c2cccc3cccnc23)cc1` (stereo partly shown), for which the activation at 1 µM on PKR R510Q, on PKR R532W, at PKR T384W and on PKR wt was 1 to 100% in each case.
As to `CC(c1ccc(F)cc1F)N1CCN(C(=O)c2ccc(NS(=O)(=O)c3cccc4cccnc34)cc2)[C@H](C)C1` (stereo partly shown), the activation at 1 µM lay in the range of 1 to 100% on PKR R510Q, 1 to 100% on PKR R532W, 1 to 100% at PKR T384W and 101 to 500% on PKR wt.
For `O=C(c1ccc(NS(=O)(=O)c2cccc3cccnc23)cc1)N1CCN(CC2CC2)C[C@@H]1c1ccccc1`, the activation at 1 µM at PKR R510Q, at PKR R532W, at PKR T384W and at PKR wt was 1 to 100% each time.
In the case of `C[C@H]1CN(C(=O)c2ccc(NS(=O)(=O)c3cccc4cccnc34)cc2)CCN1Cc1ccccc1`, the activation at 1 µM at PKR R510Q, at PKR R532W, at PKR T384W and at PKR wt was 101 to 500% in each case.
For `CC1CN(CC2CCOC2)CC(C)N1C(=O)c1ccc(NS(=O)(=O)c2cccc3cccnc23)cc1` (stereo not shown), the activation at 1 µM at PKR R510Q lay within 101 to 500%; at PKR R532W, 1 to 100%; at PKR T384W, 1 to 100%; on PKR wt it was 1 to 100%.
As for `C[C@H]1CN(CC2CCCCC2)CCN1C(=O)c1ccc(NS(=O)(=O)c2cccc3cccnc23)cc1`, the activation at 1 µM at PKR R510Q lay within 1 to 100%; on PKR R532W, 101 to 500%; at PKR T384W it was 1 to 100%; at PKR wt, 1 to 100%.
Regarding `C[C@H]1CN(Cc2ccc(F)cc2)CCN1C(=O)c1ccc(NS(=O)(=O)c2cccc3cccnc23)cc1Cl`, the activation at 1 µM lay in the range of 1 to 100% on PKR R510Q, 101 to 500% on PKR R532W, 1 to 100% on PKR T384W and 1 to 100% at PKR wt.
Consider `C[C@@H]1CN(Cc2ccc(F)cc2)CCN1C(=O)c1ccc(NS(=O)(=O)c2cccc3cccnc23)cc1`, for which the activation at 1 µM was 1 to 100% on PKR R510Q, 101 to 500% at PKR R532W, 101 to 500% on PKR T384W and 101 to 500% on PKR wt.
With `C[C@@H]1CN(Cc2ccccc2F)CCN1C(=O)c1ccc(NS(=O)(=O)c2cccc3cccnc23)cc1`, the activation at 1 µM at PKR R510Q, on PKR R532W, on PKR T384W and at PKR wt was 101 to 500% throughout.
Regarding `C[C@@H]1CN(C(=O)OCCC2CCCC2)CCN1C(=O)c1ccc(NS(=O)(=O)c2cccc3cccnc23)cc1`, the activation at 1 µM at PKR R510Q, on PKR R532W, at PKR T384W and on PKR wt was 1 to 100% in each case.
Take `O=C(c1ccc(NS(=O)(=O)c2cccc3cccnc23)cc1)N1CCN(Cc2cc(F)cc(F)c2)C[C@@H]1c1ccccc1`: the activation at 1 µM was in the range of 101 to 500% at PKR R510Q, 1 to 100% at PKR R532W, 1 to 100% on PKR T384W and 1 to 100% at PKR wt.
As for `C[C@H]1CN(Cc2cc(F)cc(F)c2F)CCN1C(=O)c1ccc(NS(=O)(=O)c2cccc3cccnc23)cc1`, the activation at 1 µM on PKR R510Q was in the range of 1 to 100%; at PKR R532W it was 1 to 100%; on PKR T384W it was 101 to 500%; on PKR wt, 101 to 500%.
In the case of `CC[C@H]1CN(C(C)c2cc(F)c(F)c(F)c2)CCN1C(=O)c1ccc(NS(=O)(=O)c2cccc3cccnc23)cc1` (stereo partly shown), the activation at 1 µM at PKR R510Q, on PKR R532W, on PKR T384W and at PKR wt was 1 to 100% in each case.
Regarding `CC(C)[C@H]1CN(Cc2ccc(F)cc2)CCN1C(=O)c1ccc(NS(=O)(=O)c2cccc3cccnc23)cc1`, the activation at 1 µM is 1 to 100% at PKR R510Q, 1 to 100% on PKR R532W, 101 to 500% at PKR T384W and 1 to 100% at PKR wt.
On to `CC1CN(Cc2ccc(F)cc2)CC(C)N1C(=O)c1ccc(NS(=O)(=O)c2cccc3cccnc23)cc1` (stereo not shown), for which the activation at 1 µM at PKR R510Q lay within 1 to 100%; on PKR R532W it was 101 to 500%; at PKR T384W, 1 to 100%; on PKR wt, 1 to 100%.
As to `COc1cccc(CN2CCN(C(=O)c3ccc(NS(=O)(=O)c4cccc5cccnc45)cc3)[C@@H](C)C2)c1OC`, the activation at 1 µM at PKR R510Q was 1 to 100%; on PKR R532W it was 1 to 100%; on PKR T384W it was 101 to 500%; on PKR wt it was 101 to 500%.
`C[C@H]1CN(CC2CCOC2)CCN1C(=O)c1ccc(NS(=O)(=O)c2cccc3cccnc23)cc1Cl` (stereo partly shown): the activation at 1 µM at PKR R510Q was in the range of 1 to 100%; at PKR R532W it was 101 to 500%; on PKR T384W it was 101 to 500%; on PKR wt it was 1 to 100%.
Take `C[C@@H]1CN(C(=O)OCC2CC2)CCN1C(=O)c1ccc(NS(=O)(=O)c2cccc3cccnc23)cc1`: the activation at 1 µM at PKR R510Q lay within 1 to 100%; on PKR R532W it was 101 to 500%; at PKR T384W, 1 to 100%; at PKR wt, 1 to 100%.
Take `C[C@@H]1CN(CC2CCOC2)CCN1C(=O)c1ccc(NS(=O)(=O)c2cccc3cccnc23)cc1` (stereo partly shown): the activation at 1 µM at PKR R510Q, at PKR R532W, on PKR T384W and on PKR wt was 101 to 500% throughout.
As to `C[C@@H]1CN(C(=O)OC2CCOCC2)CCN1C(=O)c1ccc(NS(=O)(=O)c2cccc3cccnc23)cc1`, the activation at 1 µM on PKR R510Q, at PKR R532W, at PKR T384W and at PKR wt was 1 to 100% each time.
Consider `C[C@H]1CN(C(=O)c2ccccn2)CCN1C(=O)c1ccc(NS(=O)(=O)c2cccc3cccnc23)cc1`, for which the activation at 1 µM lay in the range of 1 to 100% on PKR R510Q, 101 to 500% at PKR R532W, 1 to 100% at PKR T384W and 101 to 500% on PKR wt.
Take `O=C1CN(C(=O)c2ccc(NS(=O)(=O)c3cccc4cccnc34)cc2)CCN1Cc1cc(F)cc(F)c1`: the activation at 1 µM at PKR R510Q, on PKR R532W, at PKR T384W and at PKR wt was 101 to 500% each time.
Take `CC(c1cc(F)c(F)cc1F)N1CCN(C(=O)c2ccc(NS(=O)(=O)c3cccc4cccnc34)cc2)[C@@H](C)C1` (stereo partly shown): the activation at 1 µM lay within 1 to 100% at PKR R510Q, 101 to 500% on PKR R532W, 101 to 500% on PKR T384W and 101 to 500% on PKR wt.
Regarding `C[C@@H]1CN(CC2CCCCO2)CCN1C(=O)c1ccc(NS(=O)(=O)c2cccc3cccnc23)cc1` (stereo partly shown), the activation at 1 µM was 1 to 100% at PKR R510Q, 101 to 500% on PKR R532W, 101 to 500% at PKR T384W and 101 to 500% on PKR wt.
`CC(c1ccccc1F)N1CCN(C(=O)c2ccc(NS(=O)(=O)c3cccc4cccnc34)cc2)[C@H](C)C1` (stereo partly shown): the activation at 1 µM on PKR R510Q, on PKR R532W, at PKR T384W and at PKR wt was 1 to 100% each time.
On to `CC(C)OC(=O)N1CCN(C(=O)c2ccc(NS(=O)(=O)c3cccc4cccnc34)cc2)[C@@H](C)C1`, for which the activation at 1 µM at PKR R510Q is 101 to 500%; at PKR R532W, 101 to 500%; on PKR T384W it was 1 to 100%; on PKR wt, 1 to 100%.
Consider `CC(c1ccc(F)c(F)c1F)N1CCN(C(=O)c2ccc(NS(=O)(=O)c3cccc4cccnc34)cc2)[C@H](C)C1` (stereo partly shown), for which the activation at 1 µM on PKR R510Q was in the range of 1 to 100%; on PKR R532W, 1 to 100%; at PKR T384W it was 101 to 500%; on PKR wt, 101 to 500%.
For the molecule `C[C@H]1CN(CC2CCC2)CCN1C(=O)c1ccc(NS(=O)(=O)c2cccc3cccnc23)cc1`, the activation at 1 µM at PKR R510Q, on PKR R532W, at PKR T384W and at PKR wt was 101 to 500% in each case.
